What was measured:
[1] = target: T1, Aldehyde dehydrogenase 1, mitochondrial (Saccharomyces cerevisiae) (UniProt P22281); assay: Inhibition of yeast aldehyde dehydrogenase at 0.5 mM by spectrophotometry following NADH formation at 340 nm
T1 sequence (whole entry): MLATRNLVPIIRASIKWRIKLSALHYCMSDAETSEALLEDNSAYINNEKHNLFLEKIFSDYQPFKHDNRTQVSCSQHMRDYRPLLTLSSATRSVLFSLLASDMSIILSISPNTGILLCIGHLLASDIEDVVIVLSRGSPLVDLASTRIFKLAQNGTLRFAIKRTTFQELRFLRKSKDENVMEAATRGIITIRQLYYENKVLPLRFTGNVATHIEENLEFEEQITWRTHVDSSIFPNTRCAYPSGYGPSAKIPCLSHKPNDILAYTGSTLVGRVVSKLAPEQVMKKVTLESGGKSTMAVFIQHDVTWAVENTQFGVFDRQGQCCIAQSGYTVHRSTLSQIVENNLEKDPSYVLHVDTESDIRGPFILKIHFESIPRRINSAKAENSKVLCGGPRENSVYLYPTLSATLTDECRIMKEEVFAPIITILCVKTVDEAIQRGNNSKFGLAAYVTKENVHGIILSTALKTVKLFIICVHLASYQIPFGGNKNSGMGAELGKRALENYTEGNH

[2] = target: T2, Aldehyde dehydrogenase 1, mitochondrial (Saccharomyces cerevisiae, UniProt P22281); assay: Inhibition of yeast aldehyde dehydrogenase by spectrophotometry following NADH formation at 340 nm
T2 sequence (P22281 whole entry): T1 sequence (whole entry)

inhibition [1] [%] | IC50 [2] [µM] | SMILES
< 50 | – | CCCCCC(=O)/C=C/C=C/CCCCCCCC(=O)OCC(O)CO (stereo not given)
– | 170 | CCCCCC/C=C/C(=O)CCCCCCC(=O)OCC
< 50 | – | CCCCC/C=C/C=C/C(=O)CCCCCCCC(=O)O
– | 280 | CCCCCCCC/C=C/C(=O)CCCCCCC(=O)O
– | 430 | CCCCCCCC/C=C/C(=O)CCCCCCC(=O)OCC
